According to PubChem BioAssay (NCI):
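GI50 = concentration required for 50% inhibition of growth. TGI denotes the concentration required for complete inhibition of growth.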

Experiments:
Assay in all cases: growth of human tumour cells (NCI), 384-well format
KM12 colon = tested on: KM12 colon
SNB-75 CNS = tested on: SNB-75 CNS
COLO 205 colon = tested on: COLO 205 colon
A549 NSCLC = tested on: A549 NSCLC
NCI-H522 lung = tested on: NCI-H522 lung
MDA-MB-468 breast = tested on: MDA-MB-468 breast
HOP-92 NSCLC = tested on: HOP-92 NSCLC
SF-268 CNS = tested on: SF-268 CNS
HCC-2998 colon = tested on: HCC-2998 colon
NCI-H23 lung = tested on: NCI-H23 lung
NCI-H460 NSCLC = tested on: NCI-H460 NSCLC
RPMI-8226 leukemia = tested on: RPMI-8226 leukemia
TK-10 renal = tested on: TK-10 renal
NCI-H322M lung = tested on: NCI-H322M lung
HCT-116 colon = tested on: HCT-116 colon
SK-OV-3 ovarian = tested on: SK-OV-3 ovarian
OVCAR-3 ovarian = tested on: OVCAR-3 ovarian
UO-31 renal = tested on: UO-31 renal
MOLT-4 leukemia = tested on: MOLT-4 leukemia
LOX IMVI melanoma = tested on: LOX IMVI melanoma
CAKI-1 renal = tested on: CAKI-1 renal
NCI-H226 lung = tested on: NCI-H226 lung
HL-60(TB) leukemia = tested on: HL-60(TB) leukemia
OVCAR-5 ovarian = tested on: OVCAR-5 ovarian
ACHN renal = tested on: ACHN renal
PC-3 prostate = tested on: PC-3 prostate
HS 578T breast = tested on: HS 578T breast
SR leukemia = tested on: SR leukemia
SK-MEL-5 melanoma = tested on: SK-MEL-5 melanoma

CN1CCC(CNc2ccc3ncc(-c4cccc(OC(F)(F)F)c4)n3n2)CC1
GI50 (KM12 colon): 0.375 µM
TGI (KM12 colon): 1.42 µM
GI50 (SNB-75 CNS): 1.5 µM
TGI (SNB-75 CNS): 2.86 µM
GI50 (COLO 205 colon): 1.79 µM
TGI (COLO 205 colon): 3.19 µM
GI50 (A549 NSCLC): 1.72 µM
TGI (A549 NSCLC): 3.12 µM
GI50 (NCI-H522 lung): 1.56 µM
TGI (NCI-H522 lung): 2.9 µM
GI50 (MDA-MB-468 breast): 1.1 µM
TGI (MDA-MB-468 breast): 2.31 µM
GI50 (HOP-92 NSCLC): 1.65 µM
TGI (HOP-92 NSCLC): 3.02 µM
GI50 (SF-268 CNS): 1.65 µM
TGI (SF-268 CNS): 3.04 µM
GI50 (HCC-2998 colon): 1.43 µM
TGI (HCC-2998 colon): 2.76 µM
GI50 (NCI-H23 lung): 1.54 µM
TGI (NCI-H23 lung): 2.94 µM
GI50 (NCI-H460 NSCLC): 1.71 µM
TGI (NCI-H460 NSCLC): 3.15 µM
GI50 (RPMI-8226 leukemia): 1.37 µM
TGI (RPMI-8226 leukemia): 2.67 µM
GI50 (TK-10 renal): 1.7 µM
TGI (TK-10 renal): 3.11 µM
GI50 (NCI-H322M lung): 1.92 µM
TGI (NCI-H322M lung): 3.8 µM
GI50 (HCT-116 colon): 1.59 µM
TGI (HCT-116 colon): 2.98 µM
GI50 (SK-OV-3 ovarian): 1.67 µM
TGI (SK-OV-3 ovarian): 3.05 µM
GI50 (OVCAR-3 ovarian): 1.62 µM
TGI (OVCAR-3 ovarian): 3.01 µM
GI50 (UO-31 renal): 1.66 µM
TGI (UO-31 renal): 3.04 µM
GI50 (MOLT-4 leukemia): 1.31 µM
TGI (MOLT-4 leukemia): 2.59 µM
GI50 (LOX IMVI melanoma): 1.74 µM
TGI (LOX IMVI melanoma): 3.14 µM
GI50 (CAKI-1 renal): 1.38 µM
TGI (CAKI-1 renal): 2.71 µM
GI50 (NCI-H226 lung): 1.48 µM
TGI (NCI-H226 lung): 2.82 µM
GI50 (HL-60(TB) leukemia): 1.25 µM
TGI (HL-60(TB) leukemia): 2.53 µM
GI50 (OVCAR-5 ovarian): 1.61 µM
TGI (OVCAR-5 ovarian): 3.21 µM
GI50 (ACHN renal): 1.59 µM
TGI (ACHN renal): 2.96 µM
GI50 (PC-3 prostate): 1.26 µM
TGI (PC-3 prostate): 2.62 µM
GI50 (HS 578T breast): 1.59 µM
TGI (HS 578T breast): 2.95 µM
GI50 (SR leukemia): 1.25 µM
TGI (SR leukemia): 2.52 µM
GI50 (SK-MEL-5 melanoma): 1.12 µM
TGI (SK-MEL-5 melanoma): 2.33 µM
